# Experiments:
# [1] = target: IMPα1 (human IMPα1ΔIBB) (Homo sapiens, UniProt P52292); assay: Fluorescence polarization assay, FITC-NLS peptide vs importin α1ΔIBB
# [2] = target: T1, IMPα3 (human IMPα3ΔIBB) (Homo sapiens, UniProt O00629); assay: Fluorescence polarization assay, FITC-NLS peptide vs importin α3ΔIBB
# T1 sequence (O00629 64-521 limits assumed): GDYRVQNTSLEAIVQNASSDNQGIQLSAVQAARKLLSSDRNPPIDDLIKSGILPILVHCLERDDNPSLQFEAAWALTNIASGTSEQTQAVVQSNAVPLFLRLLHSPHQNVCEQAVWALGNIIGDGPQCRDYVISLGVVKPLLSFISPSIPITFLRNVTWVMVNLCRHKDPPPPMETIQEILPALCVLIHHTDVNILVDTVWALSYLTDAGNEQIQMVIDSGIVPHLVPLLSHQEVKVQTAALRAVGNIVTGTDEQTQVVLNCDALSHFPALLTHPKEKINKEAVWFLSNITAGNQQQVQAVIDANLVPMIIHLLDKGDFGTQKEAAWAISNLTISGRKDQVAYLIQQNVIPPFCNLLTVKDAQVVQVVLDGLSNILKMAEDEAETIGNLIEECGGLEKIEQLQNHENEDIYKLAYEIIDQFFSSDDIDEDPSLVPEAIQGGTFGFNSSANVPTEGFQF
structure (smiles),measurement,setting,value
CC[C@H](C)[C@H](NC(=O)[C@H](CCCNC(=N)N)NC(=O)[C@H](CCCNC(=N)N)NC(=O)[C@H](CCCNC(=N)N)NC(=O)[C@H](CCCCN)NC(=O)[C@H](CCCCN)NC(=O)[C@@H](NC(=O)[C@H](CCC(=O)O)NC(=O)CCCCCNC(=S)Nc1ccc2c(c1)C(=O)OC21c2ccc(O)cc2Oc2cc(O)ccc21)[C@@H](C)O)C(=O)N[C@@H](CC(C)C)C(=O)N[C@@H](CCC(=O)O)C(N)=O [HaHV1 UL36h NLS],Kd,[1],226 nM
same,Kd,[2],193 nM

# Reference: publication PMC12474298 (Viruses, 2025)
